Measurements as given in US8206704B2, “Use of GCC ligands” (priority 2003, dated 2012).
“Also recorded” adds a separate entry of the source. Where two headings read alike, the source gives them in different places.

Legend:
T84 cells [1] = assay: DNA synthesis ([methyl-3H]thymidine incorporation), tumor cell proliferation; format: cell-based, human
Experimental: (§1) T84 (passages 50-70) and SW480 (passage 100-120) human colon carcinoma cells, obtained from the American Type Culture Collection, were maintained at 37° C. (5% CO2) in DMEM/F12 containing 2.5 mM L-glutamine, 100 units/ml penicillin, 100 μg/ml streptomycin, and 10% (vol/vol) FBS.
(§2) Exponentially growing cancer cells (˜60% confluent in 96-well plates) were synchronized by serum starvation in Eagle's minimal essential medium (EMEM) for 48 h, followed by proliferative induction with 10 mM L-glutamine (in EMEM) for 24 h. ST and other agents were added to cells 15 min before 0.2 μCi per well (1 Ci=37 GBq) of [methyl-3H]thymidine, which was added for 3 h, followed by quantification of [3H]thymidine incorporation into DNA (15).

[2] = tested on: human T84 colon cancer cells; assay: Perforated whole-cell patch-clamp current measurements; format: cell-based
Experimental: The perforated mode of the whole-cell patch-clamp recording was applied to human T84 colon cancer cells. Membrane potential was controlled through the electrical access obtained by membrane perforation induced by amphotericin B (9, 10). The pipette solution supplemented by amphotericin B ([…]) contained: 140 mM KCl, 1 mM MgCl2, 5 mM EGTA, and 20 mM Hepes-KOH (pH 7.3). The bath solution contained (in mM): 136.5 mM NaCl, 5.4 mM KCl, 1.8 mM CaCl2, 0.5 mM MgCl2, 5.5 mM glucose, and 5 mM Hepes-NaOH (pH 7.4). Voltage-clamp recordings were performed with an Axopatch 1-C patch-clamp amplifier (Axon Instruments, Foster City, Calif.) at 31±1° C. using an HCC-100 temperature controller (Dagan Instruments, Minneapolis; ref. 19).

T84 cells [3] = assay: 45Ca2+ transport (calcium influx); format: cell-based, human
Experimental: Exponentially growing T84 cells (40-80% confluent in 24-well plates) were incubated in media (S-MEM, Life Technologies, Rockville, Md.) containing low (300 μM) CaCl2 to maximize the signal-to-noise ratio for L-cis-diltiazem (L-DLT)-sensitive 45Ca2+ transport determinations. Cells were treated with ST, 8-br-cGMP, and/or L-DLT for the indicated times, followed by the addition of 1 μCi per well 45Ca2+ for the last 15 min. Incubations were terminated by washing four times in cold PBS buffer (145 mM NaCl/5 mM KCl/1 mM MgCl2/10 mM glucose/5 mM Hepes, pH 7.4) containing 0.1 mM EGTA, cells were solubilized with cold NaOH (0.1 M), and radioactivity was quantified in 100-μl aliquots.

rat colon = details: L-DLT 200 μM; cited from earlier work
ST receptors = ST receptors (Homo sapiens, UniProt P25092); details: about; cited from earlier work
Chain of ST receptors (P25092 24-1073): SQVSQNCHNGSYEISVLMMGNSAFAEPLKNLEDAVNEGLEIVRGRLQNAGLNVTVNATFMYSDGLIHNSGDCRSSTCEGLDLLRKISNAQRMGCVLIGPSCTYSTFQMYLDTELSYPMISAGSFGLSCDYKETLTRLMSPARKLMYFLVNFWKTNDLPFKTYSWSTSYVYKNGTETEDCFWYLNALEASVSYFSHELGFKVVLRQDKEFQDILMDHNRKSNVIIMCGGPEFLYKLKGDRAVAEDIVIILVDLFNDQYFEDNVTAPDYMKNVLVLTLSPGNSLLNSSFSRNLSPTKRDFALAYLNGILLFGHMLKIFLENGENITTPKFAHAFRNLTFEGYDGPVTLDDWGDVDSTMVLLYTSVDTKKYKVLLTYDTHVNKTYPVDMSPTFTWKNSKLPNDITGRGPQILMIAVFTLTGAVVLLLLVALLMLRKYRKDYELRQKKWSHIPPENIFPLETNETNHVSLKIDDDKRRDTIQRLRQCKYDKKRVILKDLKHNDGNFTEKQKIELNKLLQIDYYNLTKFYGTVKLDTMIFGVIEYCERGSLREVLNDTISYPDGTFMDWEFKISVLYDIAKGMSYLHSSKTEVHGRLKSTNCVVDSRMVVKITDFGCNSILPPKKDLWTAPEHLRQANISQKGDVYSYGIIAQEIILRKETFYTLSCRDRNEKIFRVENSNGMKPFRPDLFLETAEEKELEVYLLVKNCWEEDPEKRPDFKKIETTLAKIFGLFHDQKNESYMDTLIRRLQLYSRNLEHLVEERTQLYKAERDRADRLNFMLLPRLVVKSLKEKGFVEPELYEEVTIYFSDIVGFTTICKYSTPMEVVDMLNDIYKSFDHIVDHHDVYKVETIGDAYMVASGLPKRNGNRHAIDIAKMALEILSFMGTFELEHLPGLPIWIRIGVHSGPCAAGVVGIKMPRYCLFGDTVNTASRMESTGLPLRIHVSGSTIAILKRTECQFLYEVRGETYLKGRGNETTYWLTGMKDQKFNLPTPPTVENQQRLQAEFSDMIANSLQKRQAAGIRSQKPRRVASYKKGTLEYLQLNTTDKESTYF

SW480 cells = assay: DNA synthesis ([methyl-3H]thymidine incorporation), tumor cell proliferation; format: cell-based, human; details: SW480 cells that do not express GC-C, ST 1 μM
Experimental: as §1, §2

[4] = tested on: [cGMP]i and intracellular cAMP in T84 cells; assay: Cyclic nucleotide (cGMP, cAMP) quantification by ELISA or RIA; format: cell-based, human
Experimental: cGMP and cAMP were quantified in exponentially growing T84 cells (˜60% confluent in 96-well plates) employing ELISA (Amersham Pharmacia) or RIA. In experiments employing ELISA, media was aspirated, reactions were terminated by the addition of a lysis solution (200 μl per well) containing 0.5% dodecyltrimethylammonium bromide, and aliquots (100 μl) from each well were processed for cyclic nucleotide determinations. In experiments employing RIA, reactions were terminated with ice-cold 100% ethanol, and supernatants were separated from pellets by centrifugation and processed for cGMP determinations (8).

[5] = ST as an anticancer agent in vitro; format: cell-based
[6] = Pharmacokinetics of ST in rats; format: in vivo, rat; details: for half-life: rat, in vivo
[7] = Pharmacokinetics of ST in man by allometric scaling and dosage calculation
Excerpt: An alternative approach is to provide the patient with continual intravenous dosing of ST, thereby maintaining the cytostatic effect through adjuvant chemotherapy, while minimizing any adverse effects associated with ST. To achieve therapeutic efficacy, the steady state concentration (Css) should be ≧10 EC50.

GCC-bearing cells = assay: Pre-clinical cell cycle analysis; format: cell-based; details: ST alone
[8] = tested on: matrix metalloproteinase 9 release from human colorectal cancer cells; assay: Release of matrix metalloproteinase 9 (MMP 9 activity, western blot); format: cell-based; details: ST 1 micromolar
Excerpt: Preventing the secretion of this digestive enzyme will inhibit the ability of these tumor cells to invade the wall of the intestine. […] ST did this at a concentration of 1 micromolar.

[9] = tested on: human colorectal cancer cells; assay: Actin cytoskeleton organization (confocal microscopy, cell spreading); format: cell-based
Excerpt: ST prevented human colorectal cancer cells from organizing their actin cytoskeleton. […] The latter is a functional readout of the ability of cells to organize actin. Human colorectal cancer cells treated with ST cannot spread their bodies out in vitro. An inability to organize their actin cytoskeletons will prevent these cells from being able to migrate through tissues to metastasize.

[10] = tested on: human colorectal cancer cells; assay: Association of cells with connective tissue proteins in vitro; format: cell-based; details: ST at 1 micromolar
Excerpt: Type IV collagen forms the connective tissue meshwork supporting the lamina propria and specifically serves to trap cells through specific interactions with beta integrins. Cancer cells evade this trap by diminishing their ability to bind to type IV collagen. […] Enhancing this interaction will prevent metastases by trapping cells in the laminapropria underlying epithelial cells in the intestine.

[11] = tested on: human T84 colon cancer cells; assay: Perforated whole-cell patch-clamp current measurements; format: cell-based; details: Ca-free solution, n=5

COc1ccc([C@H]2Sc3ccccc3N(CCN(C)C)C(=O)[C@H]2OC(C)=O)cc1 (relative stereo) [L-DLT, L-cis-diltiazem]
Effect of L-DLT on inhibition of proliferation by 8-br-cGMP (T84 cells [1]; 200 μM L-DLT, 8-br-cGMP 5 mM): blocked
Effect of agent on inhibition of proliferation induced by ST (T84 cells [1]; with ST, 1 μM KT5823, 50 μM RP8pCPT-cGMP, 0.5 μM KT5720, 50 μM RP-cAMPs, 10 μM milrinone, 200 μM L-DLT, 20 μM BAPTA, 50 μM DTR, 1 μM PHE, 100 nM CTX): prevented; also recorded: blocked
Effect of L-DLT on ST-induced current and reversal potential shift ([2]; 200 μM L-DLT): reversibly blocked; also recorded: reversed
Reversal potential Em restored by L-DLT in the presence of ST ([2]; n=4): −39.5±5.2 mV
Effect of L-DLT on ST- and 8-br-cGMP-induced 45Ca2+ influx (T84 cells [3]; pretreatment 30 min, 250 μM L-DLT): inhibited; also recorded: abolished
Effect on ST-induced 45Ca2+ influx in the rat colon (rat colon): abolished

Guanylin: 15 amino acid peptide with about 50% sequence homology to ST, identified in mammalian intestine (PNTCEICAYAACTGC; guanylin)
Guanylate cyclase activation level, fold less than native ST (ST receptors): 10- to 100 fold

CC(C)C[C@@H]1NC(=O)[C@H](CCC(=O)O)NC(=O)[C@@H]2CSSC[C@@H]3NC(=O)[C@H](C)NC(=O)[C@@H]4CCCN4C(=O)[C@H](CC(N)=O)NC(=O)[C@H](CSSC[C@H](NC(=O)[C@H](Cc4ccc(O)cc4)NC(=O)[C@H](Cc4ccccc4)NC(=O)[C@@H](NC(=O)[C@@H](N)CC(N)=O)[C@@H](C)O)C(=O)N2)NC(=O)[C@H](CSSC[C@@H](C(=O)N[C@@H](Cc2ccc(O)cc2)C(=O)O)NC(=O)CNC(=O)[C@H](C)NC3=O)NC1=O [ST]
Inhibition of DNA synthesis by ST (SW480 cells): not in tumor cells deficient in GC-C; also recorded: not in those cells that do not express GC-C
Inhibition of DNA synthesis / cell proliferation by ST (T84 cells [1]; T84 cells expressing GC-C, ST 1 μM): inhibits DNA synthesis; also recorded: inhibits cell proliferation
Induction of Ca2+-dependent K+ current (KCa), charybdotoxin-sensitive [2]: induced
Reversal potential derived from the induced current-voltage relationship [2]: ~−70 mV
Induction of L-DLT-sensitive membrane current ([2]; 500 nM ST, 2.5 mM 8-br-cGMP): induced membrane current; also recorded: induces an L-DLT-sensitive current
Induced current in the presence of [Ca2+]ext ([2]; control, 1.8 mM CaCl2, n=5): 0.23±0.07 nA
Reversal potential Em in the presence of ST ([2]; n=6): −66.3±3.6 mV
Shift of the reversal potential ΔEm ([2]; ramp pulses, holding potential −40 mV, mean±SEM): −27.5±2.6 mV
Influx of 45Ca2+ into colon cancer cells (T84 cells [3]; ST 1 μM, 20 min, 8-br-cGMP 5 mM, 40 min): induced influx
[cAMP]i accumulation [4]: did not induce [cAMP]i accumulation
[cGMP]i accumulation [4]: induced the accumulation of [cGMP]i; also recorded: independent of [Ca2+]ext
IC50 [5]: 14 nM
Volume of distribution, Vd ([6]; in rats, an ECF agent): 49 mls in rats (An ECF agent)
Clearance ([6]; in rats, primarily renal): 14.9 hr^−1 in rats (Primarily renal)
half-life ([6]; α phase, read-out: Blood half-life for ST (rat), α): 6 min
half-life ([6]; β phase, read-out: Blood half-life for ST (rat), β (converted)): 161 min
Clearance Cl ([7]; 70 kg man, (0.693)(Vd)/(t1/2)): 3.7 mL/min/kg
Volume of distribution Vd of ST ([7]; 70 kg patient, ECF volume): 12 L
t1/2 (α) in man ([7]; calculated): 24 min
Blood half-life for ST (man), α ([7]; man, α phase, allometric scaling theory): 24 min
Blood half-life for ST (man), β ([7]; man, β phase, allometric scaling theory): 667.2 min
t1/2 (α+β) ([7]; used for infusion rate calculation): 31.8 min
Effect on cell cycle (GCC-bearing cells): prolongation of the cell cycle; also recorded: increases equally for all four phases of the cell cycle
Release of matrix metalloproteinase 9 [8]: inhibited the release
Organization of actin cytoskeleton ([9]; ST 1 micromolar, confocal microscopy): prevented
Cell spreading ([9]; in vitro): cannot spread
Increase of association of cells with laminin or fibronectin [10]: not with laminin or fibronectin
Increase of association of cells with type IV collagen [10]: 2 fold
Induced current after removal of [Ca2+]ext [11]: 0.02±0.01 nA
